{"source": "patent US20240279201A1", "about": "“DUAL WNT SIGNALING PATHWAY INHIBITORS AND AMPK ACTIVATORS FOR TREATMENTS OF DISEASE” (priority 2021, published 2024)", "key": {"physchem": {"assay": "physchem", "procedure": "The ADMET and PK properties of YA6060 was determined.\nDetermination of physiochemical properties. The profiles of six selected analogs is estimated in silico, and selected Axin stabilizers are evaluated in in vitro assays: the aqueous solubility is determined using a multiscreen solubility filter plate (Millipore, Billerica, MA) coupled with LC-MS/MS, as performed for the already synthesized YA6060 analogs; the cell viability assays on selected analogs is measured using HEK293 cells; the intestinal permeability by determining the transport from the apical to the basolateral (A to B) in Caco-2 monolayers; the metabolic stability by incubating the compounds with mouse microsomes and liver tissue S9 fraction and analyzing by LC-MS/MS."}, "[1]": {"assay": "Toxicity evaluation in mice (oral gavage)", "format": "in vivo", "procedure": "FIG. 8 illustrates the preliminary toxicity evaluated for YA6060 in major mouse organs. […] 11 weeks C57BL/6 mice were treated for […]. The isolated tissues were stained by Haematoxylin and Eosin (H&E). The images were taken under an amplification of 20×.\nBody weight change was measured over time in mice received YA6060. […]"}, "Hygroscopicity": {"assay": "Hygroscopicity", "format": "physicochemical", "settings": "HCl salt", "text": "This Example provides evidence to access the therapeutic potential of simultaneously targeting Wnt signaling and AMPK pathways as novel anti-CRC therapeutic strategy. […] In addition, the chemical structure of YA6060 contains multiple C—H bonds that are liable to P450-mediated oxidations in the liver. Therefore, novel YA6060 analogs with acceptable non-hygroscopicity along with excellent metabolic stability are highly desirable for its further development.\nNon-hygroscopic salts of YA6060. YA6060 is an HCl salt with high hygroscopicity. YA6060 can readily absorb moisture from the environment that limits the stability and the further therapeutic application of the compound. Non-hygroscopic salts of YA6060 are generated by screening the anionic of the neutral amino parent YA6060 with a panel of acids that has been reported to form acceptably non-hygroscopic salts. Specific acids include valproic (1), maleic (2), tartaric (3), oxalic (4) and pamoic (5) acids, to get the corresponding salts."}, "β-catenin": {"molecular_target": "β-catenin (Homo sapiens (Human), UniProt P35222)", "assay": "Western blotting of β-catenin in HEK293 cells", "format": "cell-based", "settings": "100 nM, 24 h", "procedure": "(§1) FIG. 6A-FIG. 6E illustrate the development of Axin stabilizers with dual activities of Wnt inhibition and AMPK activation. […] HEK293 cells were used. B&C: 100 nM compounds, 24 h. FIG. 6D is a table showing the activity profile of YA6060. F=bioavailability; soubility is aqueous solubility.\n(§2) A dual-luciferase gene reporter assay was used to test inhibitory activities of new compounds on Wnt signaling. […] Axin is also reported to form a complex with AMPK and its upstream kinase LKB1 (FIG. 12A and FIG. 12B) to facilitate AMPK activation. Therefore, the effects of new compounds on AMPK was examined. […] YA6060 and its analogs had dual activities of potent Wnt signaling inhibition and AMPK activation, which were dependent on the levels of scaffolding protein Axin."}, "TGF-β-treated LX-2 cells": {"system": "TGF-β-treated LX-2 cells", "assay": "Anti-fibrotic efficacy in TGF-β-treated LX-2 cells", "format": "cell-based", "settings": "24 hours", "procedure": "FIG. 9A-FIG. 9C illustrate the anti-fibrotic efficacy of YA6060 in LX-2 cells. LX-2 cells were exposure to TGF-beta with and without different concentrations of YA6060 for 24 hours. FIG. 9A is a gel illustrating Western blot results. FIG. 9B and FIG. 9C are graphs of experimental data illustrating RT-PCR results. FIG. 14A-FIG. 14C illustrate the anti-fibrotic efficacy of YA6060 in LX-2 cells. The effect of YA6060 treatment on the expression of fibrotic markers in LX-2 cells was examined. LX-2 cells were treated with TGF-beta to model fibrosis. FIG. 14A is an image of a Western blot illustrating protein expression of collagen 1, vimentin, and alpha-SMA. […] FIG. 14C is a graph of experimental data illustrating mRNA expression of genes associated with inflammation by RT-PCR. The cells were treated with the indicated concentrations of YA6060 for 24 hours. *P<0.05, **P<0.01. […] The effect of YA6060 treatment on the expression of fibrotic markers in LX-2 cells was examined. LX-2 cells were treated with TGF-beta to model fibrosis. Protein expression of collagen 1, vimentin, and alpha-SMA by Western blotting (FIG. 14A). mRNA expression of collagen 1, vimentin, and alpha-SMA by RT-PCR was examined (FIG. 14B). mRNA expression of genes associated with inflammation by RT-PCR was examined (FIG. 14C). The cells were treated with the indicated concentrations of YA6060 for 24 hours. *P<0.05, **P<0.01. […]"}, "Axin 1": {"molecular_target": "Axin 1 (Homo sapiens (Human), UniProt O15169)", "assay": "Western blotting of Axin 1 in HEK293 cells", "format": "cell-based", "settings": "100 nM, 24 h", "procedure": "as §1, §2"}}, "note": "“Also recorded” adds a separate entry of the source.", "data": [{"smiles": "Cc1ccccc1-n1nnc(C(=O)Nc2ccc3cc(CN4CCNCC4)ccc3n2)c1C", "note": "[YA6060]", "values": [{"measurement": "aqueous solubility", "setting": "physchem", "value": "> 75", "unit": "mg/mL"}, {"measurement": "increase in aqueous solubility from FX1128 and FX2065", "setting": "physchem", "value": "over 10,000 fold"}, {"measurement": "solubility", "setting": "physchem; water, aqueous solubility", "value": "> 78", "unit": "mg/mL"}, {"measurement": "MTD at 21 days", "setting": "[1]; C57BL/6, mouse, in vivo, oral, 500 mg/kg, mice, single dose", "value": "> 500", "unit": "mg/kg"}, {"measurement": "acute toxicity test (body weight change)", "setting": "[1]; mouse, in vivo, po", "value": "did not exhibit acute toxicity"}, {"measurement": "toxicity / tolerability in mice, histology of major organs", "setting": "[1]; oral gavage 500 mg/kg once, 21-day evaluation", "value": "no obvious toxicity; also recorded: no noticeable toxic effects; also recorded: well tolerated; also recorded: No histological changes"}, {"measurement": "safety margin over an efficacy dose (0.5 mg/kg) for liver fibrosis", "setting": "[1]; single dose of 500 mg/kg", "value": "> 1,000 fold"}, {"measurement": "hygroscopicity", "setting": "Hygroscopicity", "value": "highly hygroscopic"}, {"measurement": "protein level of β-catenin", "setting": "β-catenin", "value": "decreased"}, {"measurement": "expression of fibrosis and inflammation markers", "setting": "TGF-β-treated LX-2 cells", "value": "significantly reduced the expression of fibrosis markers"}, {"measurement": "level of Axin 1", "setting": "Axin 1", "value": "stabilizing"}]}]}
